{"source": "paper PMC8821706", "about": "“Design and synthesis of novel nitrothiazolacetamide conjugated to different thioquinazolinone derivatives as anti-urease agents” (Scientific Reports, 2022)", "key": {"urease [1]": {"molecular_target": "T1, urease (Canavalia ensiformis, UniProt P07374)", "T1 sequence (P07374 whole entry, looked up)": "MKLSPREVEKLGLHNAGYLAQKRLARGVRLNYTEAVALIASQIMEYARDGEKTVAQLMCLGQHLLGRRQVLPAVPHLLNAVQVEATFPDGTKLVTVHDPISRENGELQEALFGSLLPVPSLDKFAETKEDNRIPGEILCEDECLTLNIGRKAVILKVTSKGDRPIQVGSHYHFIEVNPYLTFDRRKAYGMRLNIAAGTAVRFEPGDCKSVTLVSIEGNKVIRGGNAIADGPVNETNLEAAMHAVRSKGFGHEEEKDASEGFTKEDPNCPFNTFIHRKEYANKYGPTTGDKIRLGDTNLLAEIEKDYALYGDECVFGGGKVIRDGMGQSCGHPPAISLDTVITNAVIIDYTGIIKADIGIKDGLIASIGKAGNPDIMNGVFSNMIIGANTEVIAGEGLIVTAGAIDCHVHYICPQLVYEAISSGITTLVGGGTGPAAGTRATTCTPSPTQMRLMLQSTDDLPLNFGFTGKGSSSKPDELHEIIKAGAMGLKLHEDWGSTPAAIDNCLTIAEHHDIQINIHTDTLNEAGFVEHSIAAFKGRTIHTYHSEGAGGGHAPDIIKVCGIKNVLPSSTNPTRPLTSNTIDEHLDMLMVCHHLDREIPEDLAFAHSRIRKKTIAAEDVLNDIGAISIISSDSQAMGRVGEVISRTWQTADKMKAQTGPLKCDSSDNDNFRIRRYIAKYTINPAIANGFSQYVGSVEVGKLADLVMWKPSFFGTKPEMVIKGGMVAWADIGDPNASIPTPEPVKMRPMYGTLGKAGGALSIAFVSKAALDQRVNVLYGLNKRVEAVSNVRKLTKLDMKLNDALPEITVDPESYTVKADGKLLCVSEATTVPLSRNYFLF", "assay": "biochemical", "format": "biochemical, jack bean", "conditions": "for improvement in potency compared to thiourea: ratio of urease IC50 versus thiourea (positive control)", "description": "In vitro anti-urease activity of synthesized compounds, 8a-n were performed based on the […] method against urease compared with thiourea as the reference inhibitor.\nUrease inhibition effects of the synthesized compounds were determined according to the previously reported procedure[47]–[49]. 100 μL of the synthesized compounds at different concentrations was added to 850 μL of urea as substrate and 15 μL urease (0.135 units dissolved in PBS, pH 7.4). After 30 min, to 100 μL of the incubated solution, 500 μL solution I (5.0 g phenol and 25.0 mg sodium nitroprusside in 500 mL water) was added followed by the addition of 500 μL of solution II (2.5 g sodium hydroxide, 4.2 mL sodium hypochlorite, and 5% chlorine in 500 mL water) which was further incubated at 37 °C for 30 min. The absorbance was determined by measuring indophenols at 625 nm. Thiourea was used as the standard inhibitor for urease. The IC50 values for all synthesized compounds were calculated using GraphPad Prism software (GraphPad Software, Inc., San Diego, CA)."}, "urease [2]": {"system": "urease", "conditions": "cited from earlier work"}, "H. pylori": {"system": "H. pylori", "design": "method as in PMID 10394014", "conditions": "cited from earlier work"}, "[3]": {"system": "clinical isolate of P.vulgaris", "assay": "Anti-ureolytic activity, colorimetric microdilution in urea broth", "format": "cell-based", "conditions": "Proteus vulgaris; 560 nm, after 24 h; read-out: IC50 (µg/ml) of P. vulgaris (anti-ureolytic effect)", "description": "(§1) The colorimetric microdilution technique using urea broth media (Merck, supplemented with glucose; pH = 6 for C. neoformans) was used to examine the urolytic activity of C. neoformans (H99), and clinical isolate of P.vulgaris treated with tested substances. Compounds in the concentration range of 1–512 μg/mL were exposed to ureolytic microorganisms, and the color of the medium was evaluated visually and spectroscopically at 560 nm after three days for C. neoformans and 24 h for P. vulgaris. The positive control, which included ureolytic bacteria but no drugs, changed color from yellow to dark pink or magenta. This shifts, allowing the determination of the inhibitory activity of compounds against urease activity of organisms even without a microtiter plate reader[57],[58]."}, "[4]": {"system": "clinical isolate of Proteus vulgaris", "assay": "Antimicrobial activity, microbroth dilution (CLSI)", "format": "cell-based", "conditions": "tested 1 to 512 μg/ml", "description": "(§2) The antimicrobial activity of compounds against the microorganisms including C. neoformans (H99), and clinical isolate of P.vulgaris was assessed using the microbroth dilution method, as recommended by the Clinical and Laboratory Standards Institute (CLSI) (M07-A9 for bacteria; M27-A3 for yeasts). The compounds were diluted, and stock solutions of 20 mg/ml in DMSO were prepared. Mueller–Hinton Broth (HiMedia) and RPMI-1640 (Sigma) were prepared as recommended for antimicrobial susceptibility testing of bacterial and fungal strains, respectively. Two-fold dilutions were made in the range of 1–512 μg/ml for tested compounds. The microbroth dilution test was accomplished using a 96-well microtiter plate, containing growth control (yeast culture in broth media) and sterility control (broth media without fungal culture). The antimicrobial susceptibility test was accomplished by adding a cell suspension adjusted to the 0.5 McFarland standard (1–2 × 10^8 CFU/mL for bacterial strains; 1−5 × 10^6 cells/ml for yeast) to different concentrations of tested compounds. […] All experiments were performed in duplicates."}, "[5]": {"system": "Cryptococcus neoformans (H99)", "assay": "Antimicrobial activity, microbroth dilution (CLSI)", "format": "cell-based", "conditions": "tested 1 to 512 μg/ml", "description": "as §2"}, "C. neoformans (H99)": {"system": "C. neoformans (H99)", "assay": "Anti-ureolytic activity, colorimetric microdilution in urea broth", "format": "cell-based", "conditions": "Cryptococcus neoformans, 72 h; 560 nm, after three days; read-out: IC50 (µg/ml) of C. neoformans (anti-ureolytic effect)", "description": "as §1"}, "urease [6]": {"molecular_target": "T1, urease", "assay": "Kinetic study of urease inhibition (Lineweaver–Burk)", "format": "biochemical, jack bean", "description": "The mechanism of urease inhibition was investigated by enzyme kinetics, following the similar procedure of the urease inhibition assay. Lineweaver–Burk graphics were used to estimate the type of inhibition.\nThe kinetic study for the inhibition of urease by compound 8h was carried out using four different concentrations of inhibitor. For the kinetic study of urease, compound 8h was used at the concentrations of 0, 1, 2, and 4 μM. The Lineweaver–Burk reciprocal plot was constructed by plotting 1/V against 1/[S] at variable concentrations of the substrate urea (3.12–100 mM). The inhibition constant Ki was calculated by the plot of slopes versus the corresponding concentrations of the compound 8h."}}, "note": "Where two headings read alike, the source gives them in different places."}
{"smiles": "COc1ccc(-n2c(SCC(=O)Nc3ncc([N+](=O)[O-])s3)nc3ccccc3c2=O)cc1", "note": "[Compound 8d, 2-((3-(4-methoxyphenyl)-4-oxo-3,4-dihydroquinazolin-2-yl)thio)-N-(5-nitrothiazol-2-yl)acetamide]", "values": [{"measurement": "IC50", "setting": "urease [1]", "result": "2.78 ± 0.32", "unit": "µM"}]}
{"smiles": "Cc1cnc(NC(=O)CSc2nnc(-c3cccc([N+](=O)[O-])c3)o2)s1", "note": "[F]", "values": [{"measurement": "IC50", "setting": "urease [2]; thiazolbenzamide, Fig. 1F", "result": "2.17 ± 0.41", "unit": "µM"}]}
{"smiles": "O=C(Nc1ncc([N+](=O)[O-])s1)c1ccccc1O", "note": "[Tizoxanide]", "values": [{"measurement": "MIC50 against H. pylori", "setting": "H. pylori", "result": 4, "unit": "µg/mL"}, {"measurement": "MIC90 against H. pylori", "setting": "H. pylori", "result": 8, "unit": "µg/mL"}]}
{"smiles": "O=C(CSc1nc2ccccc2c(=O)n1Cc1cccnc1)Nc1ncc([N+](=O)[O-])s1", "note": "[Compound 8g, N-(5-nitrothiazol-2-yl)-2-((4-oxo-3-(pyridin-3-ylmethyl)-3,4-dihydroquinazolin-2-yl)thio)acetamide]", "values": [{"measurement": "IC50", "setting": "[3]", "result": "> 512", "unit": "µg/mL"}, {"measurement": "MIC", "setting": "[4]", "result": "> 512", "unit": "µg/mL"}, {"measurement": "MIC", "setting": "[5]", "result": "> 512", "unit": "µg/mL"}, {"measurement": "IC50", "setting": "urease [1]", "result": "2.5 ± 0.37", "unit": "µM"}]}
{"smiles": "O=C(CSc1nc2ccccc2c(=O)n1-c1ccc(Br)cc1)Nc1ncc([N+](=O)[O-])s1", "note": "[Compound 8c, 2-((3-(4-bromophenyl)-4-oxo-3,4-dihydroquinazolin-2-yl)thio)-N-(5-nitrothiazol-2-yl)acetamide]", "values": [{"measurement": "IC50", "setting": "[3]", "result": "383 ± 5.1", "unit": "µg/mL"}, {"measurement": "IC50", "setting": "C. neoformans (H99)", "result": "174 ± 4.9", "unit": "µg/mL"}, {"measurement": "MIC", "setting": "[4]", "result": "> 512", "unit": "µg/mL"}, {"measurement": "MIC", "setting": "[5]", "result": "> 512", "unit": "µg/mL"}, {"measurement": "IC50", "setting": "urease [1]", "result": "2.22 ± 0.09", "unit": "µM"}]}
{"smiles": "CCNc1nnc(Cn2c(Cc3ccc(F)cc3)nc3ccccc3c2=O)s1", "note": "[C]", "values": [{"measurement": "IC50 (urease)", "setting": "urease [2]; quinazolin-4(3H)-ones, Fig. 1C", "result": "1.88 ± 0.17", "unit": "µg/mL"}]}
{"smiles": "CC(C)n1c(SCC(=O)Nc2ncc([N+](=O)[O-])s2)nc2ccccc2c1=O", "note": "[Compound 8j, 2-((3-isopropyl-4-oxo-3,4-dihydroquinazolin-2-yl)thio)-N-(5-nitrothiazol-2-yl)acetamide]", "values": [{"measurement": "IC50", "setting": "urease [1]", "result": "6.04 ± 0.57", "unit": "µM"}]}
{"smiles": "O=C(CSc1nc2ccccc2c(=O)n1CCc1ccccc1)Nc1ncc([N+](=O)[O-])s1", "note": "[Compound 8h, N-(5-nitrothiazol-2-yl)-2-((4-oxo-3-phenethyl-3,4-dihydroquinazolin-2-yl)thio)acetamide]", "values": [{"measurement": "IC50", "setting": "[3]", "result": "172 ± 8.7", "unit": "µg/mL"}, {"measurement": "IC50", "setting": "C. neoformans (H99)", "result": "129 ± 5.3", "unit": "µg/mL"}, {"measurement": "MIC", "setting": "[4]", "result": "> 512", "unit": "µg/mL"}, {"measurement": "MIC", "setting": "[5]", "result": "> 512", "unit": "µg/mL"}, {"measurement": "Ki", "setting": "urease [6]", "result": 1.99, "unit": "µM"}, {"measurement": "inhibition pattern against urease", "setting": "urease [6]; Lineweaver–Burk plot", "result": "uncompetitive"}, {"measurement": "IC50", "setting": "urease [1]", "result": "2.22 ± 0.44", "unit": "µM"}, {"measurement": "improvement in potency compared to thiourea", "setting": "urease [1]", "result": "ten-fold"}]}
{"smiles": "O=C(CSc1nc2ccccc2c(=O)n1-c1ccccc1)Nc1ncc([N+](=O)[O-])s1", "note": "[Compound 8a, N-(5-nitrothiazol-2-yl)-2-((4-oxo-3-phenyl-3,4-dihydroquinazolin-2-yl)thio)acetamide]", "values": [{"measurement": "IC50", "setting": "urease [1]", "result": "4.72 ± 0.26", "unit": "µM"}, {"measurement": "improvement in potency compared to thiourea", "setting": "urease [1]", "result": "around fivefold"}]}
{"smiles": "O=C(Cn1c(Cc2ccc(Cl)cc2)nc2ccccc2c1=O)N/N=C/c1ccco1", "note": "[A]", "values": [{"measurement": "IC50 (urease)", "setting": "urease [2]; 2,3-disubstituted quinazolin-4(3H)-ones, Fig. 1A", "result": "1.55 ± 0.11", "unit": "µg/mL"}]}
{"smiles": "CC(C)Cn1c(SCC(=O)Nc2ncc([N+](=O)[O-])s2)nc2ccccc2c1=O", "note": "[Compound 8l, 2-((3-isobutyl-4-oxo-3,4-dihydroquinazolin-2-yl)thio)-N-(5-nitrothiazol-2-yl)acetamide]", "values": [{"measurement": "IC50", "setting": "urease [1]", "result": "8.43 ± 0.61", "unit": "µM"}]}
{"smiles": "CCCCn1c(SCC(=O)Nc2ncc([N+](=O)[O-])s2)nc2ccccc2c1=O", "note": "[Compound 8k, 2-((3-butyl-4-oxo-3,4-dihydroquinazolin-2-yl)thio)-N-(5-nitrothiazol-2-yl)acetamide]", "values": [{"measurement": "IC50", "setting": "urease [1]", "result": "3.02 ± 0.12", "unit": "µM"}]}
{"smiles": "Cc1ccc(Cn2c(SCC(=O)Nc3ncc([N+](=O)[O-])s3)nc3ccccc3c2=O)cc1", "note": "[Compound 8f, 2-((3-(4-methylbenzyl)-4-oxo-3,4-dihydroquinazolin-2-yl)thio)-N-(5-nitrothiazol-2-yl)acetamide]", "values": [{"measurement": "IC50", "setting": "urease [1]", "result": "3.5 ± 0.28", "unit": "µM"}]}
{"smiles": "CC(=O)Oc1ccccc1C(=O)Nc1ncc([N+](=O)[O-])s1", "note": "[Nitazoxanide]", "values": [{"measurement": "MIC50 against H. pylori", "setting": "H. pylori", "result": 4, "unit": "µg/mL"}, {"measurement": "MIC90 against H. pylori", "setting": "H. pylori", "result": 8, "unit": "µg/mL"}]}
{"smiles": "O=C(CSc1nc2ccccc2c(=O)n1C1CCCC1)Nc1ncc([N+](=O)[O-])s1", "note": "[Compound 8n, 2-((3-cyclopentyl-4-oxo-3,4-dihydroquinazolin-2-yl)thio)-N-(5-nitrothiazol-2-yl)acetamide]", "values": [{"measurement": "IC50", "setting": "urease [1]", "result": "2.96 ± 0.45", "unit": "µM"}]}
{"smiles": "C=CCn1c(SCC(=O)Nc2ncc([N+](=O)[O-])s2)nc2ccccc2c1=O", "note": "[Compound 8m, 2-((3-allyl-4-oxo-3,4-dihydroquinazolin-2-yl)thio)-N-(5-nitrothiazol-2-yl)acetamide]", "values": [{"measurement": "IC50", "setting": "urease [1]", "result": "5.46 ± 0.38", "unit": "µM"}]}
{"smiles": "CCc1nc2ccccc2c(=O)n1CC(=O)NNC(=O)c1cc2cc(Br)ccc2oc1=O", "note": "[B]", "values": [{"measurement": "IC50 (urease)", "setting": "urease [2]; quinazolinone-coumarin derivatives, Fig. 1B", "result": "1.26 ± 0.07", "unit": "µg/mL"}]}
{"smiles": "O=C(CSc1nc2ccccc2c(=O)n1-c1ccc(Cl)cc1)Nc1ncc([N+](=O)[O-])s1", "note": "[Compound 8b, 2-((3-(4-chlorophenyl)-4-oxo-3,4-dihydroquinazolin-2-yl)thio)-N-(5-nitrothiazol-2-yl)acetamide]", "values": [{"measurement": "IC50", "setting": "urease [1]", "result": "2.34 ± 0.19", "unit": "µM"}]}
{"smiles": "CCCn1c(SCC(=O)Nc2ncc([N+](=O)[O-])s2)nc2ccccc2c1=O", "note": "[Compound 8i, N-(5-nitrothiazol-2-yl)-2-((4-oxo-3-propyl-3,4-dihydroquinazolin-2-yl)thio)acetamide]", "values": [{"measurement": "IC50", "setting": "urease [1]", "result": "4.26 ± 0.46", "unit": "µM"}]}
{"smiles": "NC(N)=S", "note": "[Thiourea, reference compound]", "values": [{"measurement": "IC50 (urease)", "setting": "urease [2]; quinazolin-4(3H)-ones, Fig. 1C", "result": 15.06, "unit": "µg/mL"}, {"measurement": "IC50", "setting": "urease [1]; mean ± standard error of three independent experiments, read-out: IC50 (urease inhibitory activity)", "result": "22.5 ± 0.44", "unit": "µM"}]}
{"smiles": "O=C(CSc1nc2ccccc2c(=O)n1Cc1ccccc1)Nc1ncc([N+](=O)[O-])s1", "note": "[Compound 8e, 2-((3-benzyl-4-oxo-3,4-dihydroquinazolin-2-yl)thio)-N-(5-nitrothiazol-2-yl)acetamide]", "values": [{"measurement": "IC50", "setting": "urease [1]", "result": "3.83 ± 0.17", "unit": "µM"}]}
